Entries after “also recorded” stand apart in the source; their conditions may differ.

The test system of experiment [1] is O-GlcNAc levels in different cell lines (COS-7, CHO, SK-N-SH, HepG2, PC12, mouse hybridoma, EMEG32-/-). Nature of the experiment: Western blot of O-GlcNAc levels in various cell lines. In kind it is cell-based. The following applies: 50 μM (100 μM for PC12), 24 h; listed as Ac-5SGlcNAc. Here is the method:
FIG. 2L. Western blots of cell lysates from different cell lines following no (C), Ac-GlcNAc (G) or Ac-5SGlcNAc (5SG) administration at 50 μM (or 100 μM for PC12 cells) for 24 h. Upper panel, probed with anti-O-GlcNAc antibody (CTD110.6); lower panel, anti-actin antibody. Cell lines used: COS-7 (African green monkey kidney cell line), CHO (Chinese hamster ovary cell line), SK-N-SH (human neuroblastoma cell line), HepG2 (human liver carcinoma cell line), PC12 (rat adrenal medulla pheochromocytoma cell line, which terminally differentiate upon nerve growth factor treatment), mouse hybridoma cell line and EMEG32^−/− (mouse embryonic fibroblasts deficient in glucosamine-6-phosphate acetyltransferase).
(§1) Cell culture: Cells were grown in an incubator at 37° C. and 5% CO2 atmosphere. Media and serum were purchased from Invitrogen. COS-7 cells were cultured in Dulbecco's modified Eagle's medium (DMEM) with 5% fetal bovine serum (FBS), and were typically 80-100% confluent prior to experimentation. HepG2, SK-N-SH, and EMEG32^−/− cells were cultured in Dulbecco's modified Eagle's medium (DMEM) with 5% fetal bovine serum (FBS), CHO cells in DMEMF-12 with 5% FBS and PC12 cells in DMEM with 5% FBS and 5% horse serum. Prior to experimentation, PC12 cells were plated at a density of 3-4×10^5 cells10 cm plate, which had been pre-treated with 5 μgcm^2 rat tail collagen (BD Biosciences). […]
On the technique in general: Immunoblotting shows a protein as a band on a membrane.

Experiment [2] has as its system O-GlcNAc levels in CHO cells. Nature of the experiment: Western blot of O-GlcNAc levels (CTD110.6) in treated CHO cells. In kind it is cell-based, Chinese hamster. Here is the method:
as §1, with “Biosciences). Cells were differentiated in DMEM containing 1% horse serum, in the presence of 2.5S mouse nerve growth factor (Chemicon) at a final concentration of 25 ng mL^−1, for 4-5 days prior to treatment. Other cell lines were 80-100% confluent prior to treatment.” for “Biosciences).”
Antibodieslectins: O-GlcNAc levels were assessed primarily using CTD110.6 (Covance), but RL2 (Abcam) and HGAC85 (Abcam) were also tested. […] OGA levels were assessed using a polyclonal anti-OGA antibody which was a kind gift from Dr. Gerald Hart and OGT levels using H-300 (Santa Cruz Biotechnology). nup62 was probed using mAb 414 (Covance). […]

The test system of the next experiment is OGA. As to the kind of experiment: Western blot of OGA levels in treated COS-7 cells. To be noted: 50 μM, 24 h. It is filed as cell-based, African green monkey. Here is the method: Westernlectin blots: Samples were run on 10% SDS polyacrylamide gels and transferred onto nitrocellulose membranes (Biorad). Membranes were blocked for 1 h in PBS containing 0.1% Tween-20 (PBS-T) containing 1% (unless otherwise stated) bovine serum albumin (BSA), and probed with the appropriate primary antibody or lectin in 1% BSA in PBS-T overnight at 4° C. Blots were washed for 1 hr with PBS-T, and blocked for a further 30 min with 1% BSA in PBS-T at room temperature. They were then probed with the appropriate horseradish peroxidise (HRP)-conjugated secondary antibodyprobe in 1% BSA in PBS-T at room temperature for 1 h, followed by washing in PBS-T for 1 h. Blots were developed with SuperSignal West Pico Chemiluminescent Substrate (Pierce) and exposed to CL-XPosure film (Pierce). Densitometry was performed using ImageQuant 5.2 (Molecular Dynamics), and fits to the data were made using GRAFIT^41.
Antibodieslectins: O-GlcNAc levels were assessed primarily using CTD110.6 (Covance), but RL2 (Abcam) and HGAC85 (Abcam) were also tested. Actin was probed using JLA20 (Developmental Studies Hybridoma Bank). OGA levels were assessed using a polyclonal anti-OGA antibody which was a kind gift from Dr. Gerald Hart and OGT levels using H-300 (Santa Cruz Biotechnology). nup62 was probed using mAb 414 (Covance). […]

What is called EC50 is the concentration at which the effect is half-maximal. With `CC(=O)NC1C(OC(C)=O)SC(COC(C)=O)C(OC(C)=O)C1OC(C)=O` [Compound 9, N-Acetyl-1,3,4,6-tetra-O-acetyl-α-D-5-thio-glucosamine], the “O-GlcNAc levels in the cell lines tested” value in experiment [1] is “Various other cell lines showed equivalent responses; also recorded: near complete loss of O-GlcNAc in the cell lines tested”. In experiment [2] (50 μM, 5 days), the “O-GlcNAc levels at last time point of growth curve” value is recorded as “O-GlcNAc levels are still significantly decreased in cells treated with Ac-5SGlcNAc”. Moreover, the EC50 in experiment [2] (Cricetulus griseus, 24 h, read-out: EC50 for reduction of O-GlcNAc levels) amounted to 800 nM. The OGA levels entry in the experiment on OGA was “compensatory decrease in OGA levels”.

The record behind these values is patent US20150259371A1, “METHODS AND COMPOUNDS FOR INHIBITING GLYCOSYLTRANSFERASES” (SIMON FRASER UNIVERSITY, priority 2010, published 2015).
